The source of these data is US7781469B2, “Arylacetate derivatives having isoxazole skeleton” (Shionogi & Co., Ltd., priority 2005, dated 2010).

The target of one data set is T1, human PPARδ (hPPARδ) (Homo sapiens, UniProt Q03181).
T1 construct: (δ: aa 139-C-end; α: aa 167-C-end); expressed in transfected cells
T1 sequence (Q03181 139-441 limits assumed): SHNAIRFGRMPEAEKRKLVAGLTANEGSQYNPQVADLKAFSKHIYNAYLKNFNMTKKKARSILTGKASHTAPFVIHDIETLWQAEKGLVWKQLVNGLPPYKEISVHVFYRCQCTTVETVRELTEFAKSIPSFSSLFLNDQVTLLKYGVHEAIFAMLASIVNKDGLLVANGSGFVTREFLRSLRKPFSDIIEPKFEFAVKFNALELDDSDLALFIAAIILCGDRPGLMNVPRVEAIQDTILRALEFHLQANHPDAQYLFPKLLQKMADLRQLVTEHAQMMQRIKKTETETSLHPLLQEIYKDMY
In words: Test for transcriptional activity of PPARδ (GAL4 chimeric transcription factor luciferase reporter assay in CHO cells). It is filed as cell-based. The conditions noted are these: concentration showing 1/2 of maximum luciferase activity. The source says: Test Example 1 Test for Transcriptional Activity of PPARδ and α
A chimeric transcription factor assay, which is commonly used to detect nuclear receptor activity, was employed to measure PPAR transcriptional activity. Specifically, two plasmids, one that expresses the fusion protein of DNA binding domain of yeast transcription factor GAL4 and a ligand binding domain of a receptor, and a reporter plasmid were transiently transfected to CHO cells. The activity of the promoter containing a recognition sequence of GAL4 coded on the reporter plasmid was used as a parameter to estimate the activity of the receptor. • Plasmid: The ligand binding domain of human PPARδ (hPPARδ) or α (hPPARα) (δ: aa 139-C-end; α: aa 167-C-end) is obtained by PCR amplification using Human Universal Quick-Clone cDNA (CLONTECH). Each amplified cDNA was subcloned into pCR2.1-TOPO vector (Invitrogen) and the identity of the cDNA clones was confirmed by the DNA sequence. Then, each obtained cDNA fragment was subcloned into pBIND vector (Promega) to construct a plasmid expressing the fusion protein with DNA binding domain of yeast transcription factor GAL4. pG51uc vector (Promega) was used as a reporter plasmid. • Cell culturing and transfection: CHO cells were cultured in 10% FBS-αMEM. With a 96-well plate (Costar), CHO cells, that were dispersed with trypsin treatment, 20000 cells per well and the two plasmids obtained by the above procedure, 25 ng per well, were transfected with FuGene Reagent (Roche) by following the instruction of the manufacture. • Measurement of the transcriptional activity: CHO cells 100 μl per well, which were transfected as above, were dispensed into the wells in which a test compound dissolved in DMSO 0.5 μl was spotted in advance. After the cells and a test compound were cultured together for 24 hours in a CO2 incubator, the luciferase activity was measured by adding luciferase substrates, PicaGene LT2.0 (Toyo ink) 100 μl per well. LUMINOUS CT-9000D (DIA-IATRON) is used to measure the activity.

The term melting point denotes the temperature, or range, at which the solid turns liquid. One may read the EC50 as the concentration at which the effect is half-maximal. The low end stands for a more potent agent, the high end for a less potent agent. `CCON=Cc1c(CSc2cccc(CC(=O)O)c2)noc1-c1ccc(C(F)(F)F)cc1` [X-25]: the melting point fell in the range of 131 to 133 °C. The EC50 at human PPARδ (hPPARδ) amounted to 12 nM. With `O=C(O)Cc1cccc(SCc2noc(-c3ccc(C(F)(F)F)cc3)c2C=NOCCF)c1` [X-6, {3-[4-(2-Fluoroethoxyiminomethyl)-5-(4-trifluoromethylphenyl)isoxazole-3-ylmethylsulfanyl]phenyl}acetic acid], the half-maximal effective concentration (EC50) at human PPARδ (hPPARδ) was 9.8 nM. Compound `CCON=Cc1c(CSc2cc(CC(=O)O)ccc2F)noc1-c1ccc(C(F)(F)F)cc1` [X-8] showed an EC50 on human PPARδ (hPPARδ) of 9.8 nM.
